Test results published in article PMC4790851, “Iminosugars Inhibit Dengue Virus Production via Inhibition of ER Alpha-Glucosidases—Not Glycolipid Processing Enzymes” (PLoS Neglected Tropical Diseases, 2016).
“Also recorded” adds a separate entry of the source.

System: DENV2 D2S10
Assay: Lethal mouse model of antibody-enhanced DENV infection
Type: in vivo, AG129 mice
Conditions: 33.3 mg/kg/dose t.i.d. p.o.
Method: Virus titers of samples isolated from infected mice were obtained by BHK-21 plaque assays in accordance with previous protocols. BHK-21 cells were seeded in 12-well plates (3 x 10^5 cells/well) in α-MEM medium containing 5% HI-FBS for 3 hours (37°C, 5% CO2). Medium was removed, log10 serial dilutions of virus in α-MEM with 2% HI-FBS were added, and cells were incubated for an additional 2 hours (37°C, 5% CO2). Following incubation, 1.5 ml of α-MEM containing 5% (v/v) HI-FBS and 1% (w/v) low-melting point tissue culture grade agarose (Sigma) was added to each well and allowed to solidify at room temperature before further incubation (37°C, 5% CO2) for 5 days. Plaques were visualised after fixation in 10% formaldehyde (1 hour, room temperature) and removal of the agarose plug by staining briefly (approximately 30 seconds) with 1% (w/v) crystal violet (Sigma) in 20% (v/v) ethanol (EtOH, Sigma). Concentrations were normalised to tissue mass (in grams) or serum volume (in ml) as appropriate.
For animal experiments, multiplex qRT-PCR was conducted on all tissue isolates and plasma as described for in vitro experiments. Rodent glyceraldehyde 3-phosphate dehydrogenase (GAPDH) control (Life Technologies #4308313) containing a VIC reporter dye was attached to a TAMRA (tetramethylrhodamine) quencher, and experimental DENV NS5-specific target was labelled with FAM (6-fluorescein amidite) reporter dyes with a TAMRA quencher. GAPDH primers were used at 10 μM and probe at 20 μM. In the case of DENV qRT-PCR, quantitation using a DENV2-specific primer/probe set directed to NS5 was conducted using all primers and probe at 10 μM final concentration. Thermocycling was conducted as for in vitro experiments. Viral RNA from tissues was quantified by ΔΔCt method, whereas plasma samples were quantified relative to a standard curve as for in vitro experiments. Samples were read in technical duplicate and 95% confidence intervals were determined based on biological and technical variation and graphed using Prism 6 (GraphPad Software, Inc.).
All experimental procedures were pre-approved by the UC Berkeley Animal Care and Use Committee and were performed according to the guidelines of the UC Berkeley Animal Care and Use Committee, the United States Public Health Service, and the USDA Animal Welfare Act. Mice of the 129/Sv background deficient in interferon (IFN)-α/β and -γ receptors (AG129 mice) were infected with DENV under antibody-enhanced conditions as previously described. Mice were primed 24 hours prior to infection with a 5 μg intraperitoneal (i.p.) injection of a pan-flavivirus monoclonal antibody against E protein, 4G2. At t = 0, 10^5 pfu of DENV2 D2S10 was injected intravenously. […]

[1] = serum at 80 h post-infection, AG129 mice, listed as celgosivir

## CCCC(=O)O[C@H]1CN2CC[C@H](O)[C@@H]2[C@@H](O)[C@@H]1O [Celgosivir, 6-O-butanoyl-castanospermine]
80 h post-infection, qRT-PCR normalized to GAPDH
  viral RNA levels in spleen: enhanced viral RNA levels by approximately two orders of magnitude
Serum at 80 h post-infection, AG129 mice
  infectious virus level in serum (BHK-21 plaque assay): reduced the average viral titer, but the differences were not statistically significant
[1]
  circulating viral load (viral RNA, qRT-PCR): significantly reduced; also recorded: statistically significant reduction in viral RNA load
  infectious virus level in serum (BHK-21 plaque assay): not statistically significant
